Patent publication US11434242B2, “Dopamine-b-hydroxylase inhibitors” (BIAL-PORTELA & Cª, S.A., priority 2017, dated 2022)

Molecular target: T1, Dopamine beta hydroxylase (Homo sapiens, UniProt P09172)
T1 construct: 125 μl of plasma; tissue Instituto Português do Sangue Transplantação; host or cells: human plasma from healthy donors
T1 sequence (P09172 40-617 limits assumed): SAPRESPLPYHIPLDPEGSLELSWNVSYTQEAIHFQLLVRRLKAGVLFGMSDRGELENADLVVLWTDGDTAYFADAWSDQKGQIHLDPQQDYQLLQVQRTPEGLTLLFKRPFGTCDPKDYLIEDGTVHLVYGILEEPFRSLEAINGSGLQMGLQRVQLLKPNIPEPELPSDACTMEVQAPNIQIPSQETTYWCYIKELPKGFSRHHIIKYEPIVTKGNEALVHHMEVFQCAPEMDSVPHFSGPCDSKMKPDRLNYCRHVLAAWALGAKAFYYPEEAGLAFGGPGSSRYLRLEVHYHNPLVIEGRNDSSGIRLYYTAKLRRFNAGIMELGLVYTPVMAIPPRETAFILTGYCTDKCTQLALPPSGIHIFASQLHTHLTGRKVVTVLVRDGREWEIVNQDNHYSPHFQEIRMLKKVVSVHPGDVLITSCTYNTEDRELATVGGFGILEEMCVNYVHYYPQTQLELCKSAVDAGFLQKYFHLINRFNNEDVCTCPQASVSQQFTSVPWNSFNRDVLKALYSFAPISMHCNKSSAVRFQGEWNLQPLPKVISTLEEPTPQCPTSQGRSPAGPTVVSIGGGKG
Assay: Dopamine beta hydroxylase activity in human plasma
Assay type: biochemical
Conditions: for Plasma (0.01 μM), activity in % of control: inhibitor 0.01 μM; for Plasma (0.1 μM), activity in % of control: inhibitor 0.1 μM; for Plasma (1 μM), activity in % of control: inhibitor 1 μM
Method in brief: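 Healthy-donor human plasma pre-incubated 10 min at 37° C with compound at final 10, 100 or 1000 nM in pH 5.0 acetate buffer with ascorbate, fumarate, pargyline, N-ethylmaleimide, catalase and copper sulfate. Tyramine substrate then added for 45 min; octopamine formed was isolated by SCX cartridge, periodate-converted and read at 330 nm; activity given as % control.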

SMILES | Plasma (0.01 μM), activity in % of control | Plasma (0.1 μM), activity in % of control | Plasma (1 μM), activity in % of control
Cl.Fc1ccc(F)c([C@H]2Cc3c(CCNC[C@@H]4CCCO4)[nH]c(=S)n3C2)c1F [Example 475, (R)-1-(2-((((S)-tetrahydrofuran-2-yl)methyl)amino)ethyl)-6-(2,3,6-trifluorophenyl)-2,5,6,7-tetrahydro-3H-pyrrolo[1,2-c]imidazole-3-thione hydrochloride] | 85.0 % of control | 67.0 % of control | 
CCCCN(C)C(=O)Cc1[nH]c(=S)n2c1C[C@@H](c1c(F)ccc(Br)c1F)C2 [Example 92, (S)-2-(6-(3-bromo-2,6-difluorophenyl)-3-thioxo-2,5,6,7-tetrahydro-3H-pyrrolo[1,2-c]imidazol-1-yl)-N-butyl-N-methylacetamide] |  | 37.5 % of control | 0.1 % of control
CC(C)NCCc1[nH]c(=S)n2c1[C@@H]1C[C@]1(c1cc(Cl)ccc1F)C2.Cl [Example 175, (5aS,6aR)-5a-(5-chloro-2-fluorophenyl)-1-(2-(isopropylamino)ethyl)-5,5a,6,6a-tetrahydrocyclopropa[3,4]pyrrolo[1,2-c]imidazole-3(2H)-thione hydrochloride] |  | 61.7 % of control | 13.8 % of control
CN1CCN(C(=O)Cc2[nH]c(=S)n3c2C[C@@H](c2c(F)ccc(Br)c2F)C3)CC1 [Example 91, (S)-2-(6-(3-bromo-2,6-difluorophenyl)-3-thioxo-2,5,6,7-tetrahydro-3H-pyrrolo[1,2-c]imidazol-1-yl)-1-(4-methylpiperazin-1-yl)ethan-1-one] |  | 19.0 % of control | 0 % of control
CS(=O)(=O)C1CCN(C(=O)Cc2[nH]c(=S)n3c2C[C@@H](c2c(F)ccc(Br)c2F)C3)C1 (stereo partly drawn) [Example 164, 2-((S)-6-(3-bromo-2,6-difluorophenyl)-3-thioxo-2,5,6,7-tetrahydro-3H-pyrrolo[1,2-c]imidazol-1-yl)-1-(3-(methylsulfonyl)pyrrolidin-1-yl)ethan-1-one] | 65.8 % of control | 17.1 % of control | 
Cn1c(CCC(=O)N2CCCC2)c2n(c1=S)C[C@@H](c1c(F)c(F)cc(F)c1F)C2 [Example 261, (R)-3-(2-methyl-6-(2,3,5,6-tetrafluorophenyl)-3-thioxo-2,5,6,7-tetrahydro-3H-pyrrolo[1,2-c]imidazol-1-yl)-1-(pyrrolidin-1-yl)propan-1-one] | 86.2 % of control | 31.8 % of control | 
CN(C(=O)Cc1[nH]c(=S)n2c1C[C@H](c1c(F)ccc(F)c1F)C2)C1CCOCC1 [Example 379, (R)—N-methyl-2-(6-(2,3,6-trifluorophenyl)-3-thioxo-2,5,6,7-tetrahydro-3H-pyrrolo[1,2-c]imidazol-1-yl)-N-(tetrahydro-2H-pyran-4-yl)acetamide] | 108.7 % of control | 50.1 % of control | 
Cl.Fc1ccc(Cl)c(F)c1[C@@H]1Cc2c(CCc3cccnc3)[nH]c(=S)n2C1 [Example 215, (S)-6-(3-chloro-2,6-difluorophenyl)-1-(2-(pyridin-3-yl)ethyl)-2,5,6,7-tetrahydro-3H-pyrrolo[1,2-c]imidazole-3-thione Hydrochloride] | 74.3 % of control | 34.2 % of control | 
O=C(CCc1[nH]c(=S)n2c1C[C@H](c1c(F)c(F)cc(F)c1F)C2)NCC1CC1 [Example 203, (R)—N-(cyclopropylmethyl)-3-(6-(2,3,5,6-tetrafluorophenyl)-3-thioxo-2,5,6,7-tetrahydro-3H-pyrrolo[1,2-c]imidazol-1-yl)propanamide] | 95.8 % of control | 75.8 % of control | 
Cn1c(C2(C(=O)NCCS(C)(=O)=O)CC2)c2n(c1=S)C[C@H](c1c(F)ccc(Br)c1F)C2 [Example 238, (S)-1-(6-(3-bromo-2,6-difluorophenyl)-2-methyl-3-thioxo-2,5,6,7-tetrahydro-3H-pyrrolo[1,2-c]imidazol-1-yl)-N-(2-(methylsulfonyl)ethyl)cyclopropane-1-carboxamide] | 93.4 % of control | 88.5 % of control | 
N#CCNC(=O)Cc1[nH]c(=S)n2c1C[C@H](c1c(F)ccc(Br)c1F)C2 [Example 159, (R)-2-(6-(3-bromo-2,6-difluorophenyl)-3-thioxo-2,5,6,7-tetrahydro-3H-pyrrolo[1,2-c]imidazol-1-yl)-N-(cyanomethyl)acetamide] | 84.3 % of control | 50.9 % of control | 
Cn1c(CC(=O)NC2(C#N)CC2)c2n(c1=S)C[C@@H](c1c(F)ccc(F)c1F)C2 [Example 254, (R)—N-(1-cyanocyclopropyl)-2-(2-methyl-3-thioxo-6-(2,3,6-trifluorophenyl)-2,5,6,7-tetrahydro-3H-pyrrolo[1,2-c]imidazol-1-yl)acetamide] | 81.4 % of control | 62.2 % of control | 
Cc1noc(Cc2[nH]c(=S)n3c2C[C@@H](c2c(F)ccc(Cl)c2F)C3)n1 [Example 228, (S)-6-(3-chloro-2,6-difluorophenyl)-1-((3-methyl-1,2,4-oxadiazol-5-yl)methyl)-6,7-dihydro-2H-pyrrolo[1,2-c]imidazole-3(5H)-thione] | 90.2 % of control | 56.0 % of control | 

Further lines, results first:

Plasma (0.01 μM), activity in % of control | Plasma (0.1 μM), activity in % of control | Plasma (1 μM), activity in % of control | SMILES
32.8 % of control | 2.7 % of control |  | Cl.Cn1c(CC(=O)NCc2ccccn2)c2n(c1=S)C[C@@]1(c3cc(Cl)ccc3F)C[C@@H]21 [Example 332, 2-((5aS,6aR)-5a-(5-chloro-2-fluorophenyl)-2-methyl-3-thioxo-2,3,5,5a,6,6a-hexahydrocyclopropa[3,4]pyrrolo[1,2-c]imidazol-1-yl)-N-(pyridin-2-ylmethyl)acetamide Hydrochloride]
88.4 % of control | 61.4 % of control |  | Cn1c(CCC(=O)N2CCOCC2)c2n(c1=S)C[C@@H](c1c(F)c(F)cc(F)c1F)C2 [Example 318, (R)-3-(2-methyl-3-thioxo-6-(2,3,5,6-tetrafluorophenyl)-2,5,6,7-tetrahydro-3H-pyrrolo[1,2-c]imidazol-1-yl)-1-morpholinopropan-1-one]
73.6 % of control | 23.9 % of control |  | Cn1c(CC(=O)N2CCOCC2)c2n(c1=S)C[C@@]1(c3cc(Br)ccc3F)C[C@@H]21 [Example 436, 2-((5aS,6aR)-5a-(5-bromo-2-fluorophenyl)-2-methyl-3-thioxo-2,3,5,5a,6,6a-hexahydrocyclopropa[3,4]pyrrolo[1,2-c]imidazol-1-yl)-1-morpholinoethan-1-one]
62.1 % of control | 15.1 % of control |  | Cn1c(CC(=O)NC2CC2)c2n(c1=S)C[C@@]1(c3cc(Br)ccc3F)C[C@@H]21 [Example 357, 2-((5aS,6aR)-5a-(5-bromo-2-fluorophenyl)-2-methyl-3-thioxo-2,3,5,5a,6,6a-hexahydrocyclopropa[3,4]pyrrolo[1,2-c]imidazol-1-yl)-N-cyclopropylacetamide]
42.3 % of control | 4.3 % of control |  | Cn1cc(CNC(=O)Cc2c3n(c(=S)n2C)C[C@@]2(c4cc(Cl)ccc4F)C[C@@H]32)cn1 [Example 339, 2-((5aS,6aR)-5a-(5-chloro-2-fluorophenyl)-2-methyl-3-thioxo-2,3,5,5a,6,6a-hexahydrocyclopropa[3,4]pyrrolo[1,2-c]imidazol-1-yl)-N-((1-methyl-1H-pyrazol-4-yl)methyl)acetamide]
26.1 % of control | 5.8 % of control |  | Cn1c(CC(=O)N2CCOCC2)c2n(c1=S)C[C@@]1(c3c(F)ccc(Cl)c3F)C[C@@H]21 [Example 421, 2-((5aS,6aR)-5a-(3-chloro-2,6-difluorophenyl)-2-methyl-3-thioxo-2,3,5,5a,6,6a-hexahydrocyclopropa[3,4]pyrrolo[1,2-c]imidazol-1-yl)-1-morpholinoethan-1-one]
60.0 % of control | 10.4 % of control |  | O=C(O)Cc1[nH]c(=S)n2c1[C@@H]1C[C@]1(c1cc(Br)ccc1F)C2 [Example 361, 2-((5aS,6aR)-5a-(5-bromo-2-fluorophenyl)-3-thioxo-2,3,5,5a,6,6a-hexahydrocyclopropa[3,4]pyrrolo[1,2-c]imidazol-1-yl)acetic Acid]
